Measured values as given in patent US20110201105A1, “LACTATION-ASSOCIATED POLYPEPTIDES” (Dairy Australia Limited, priority 2007, published 2011).

What was measured:
ERK = ERK assay for cell growth-promoting activity (TGR assay), Swiss 3T3 fibroblast cells; format: cell-based; settings: tammar LAM corresponding to the bovine sample of Table 24
Protocol: (§1) Plasmids containing Tammar wallaby LAMs were directionally cloned into the expression vector pCMV Sport 6.0, and then transfected into the human kidney cell line HK293. A total of 1 μg of LAM-containing plasmid DNA and 10 ng of pEGFP-C1 plasmid was introduced into 70% confluent HK293 cells in 2 cm^2 wells containing 500 ul of opti-MEM-1 media. Transfection success was assessed by observing green fluorescence of cells by fluorescent microscopy. After 48 hours conditioned media containing the secreted polypeptide was collected and frozen at −20° C. The media containing the secreted polypeptides was then used directly in a variety of bioactivity assays. For the assays described below, samples of secreted polypeptides were aliquoted into individual wells of 96 or 384 well plates and stored, prior to assaying, either frozen or lyophilized.
(§2) A negative control created by transfection with an insertless vector was used in all assays. For the assays described in Examples 4A, 4B, 4C and 4D results for samples were in the form of relative fluorescence units (RFU) as described herein. […] In some cases, RFU less than two standard deviations from the mean were considered significant if the LAM sample in question produced a positive result in another assay.
Extracellular signal-regulated protein kinase (ERK) is a common and central signal transduction pathway component of tyrosine kinase receptor. Activation of ERK is indicative of an extracellular proliferation signal and provides an index of a growth promoting agent.
Swiss 3T3 fibroblast cells were plated into 384 well plates, grown to confluence and starved overnight with serum-free medium. Cells were then treated for 10 minutes with a LAM polypeptide prepared as described above. Cells were then lysed and assayed for activation of ERK. Samples were assessed for changes in the activity of ERK.
The results of ERK activation assays are shown in Table 6 as relative fluorescence units (RFU). […] These same samples are equated with LAM numbers as represented in Table 7. […]

AGS cells = experiment: Cell growth using bovine cathelicidin variants in AGS cells (SRB assay); format: cell-based, human; parameters: unit not given here; settings: 72 hours; for cell growth Replicate 3: -ve control 0.233; for cell growth Replicate 1: -ve control 0.247; for cell growth Replicate 4: -ve control 0.265; for cell growth Replicate 2: -ve control 0.316; for cell growth Mean: -ve control mean 0.265
Protocol: A cellular growth assay was performed using seven bovine cathelicidin (CATHL) variants, namely CATHL1, 4, and 6 which are known in the art (the relevant sequences can be obtained using the following hyperlink: http://www.ncbi.nlm.nih.gov/entrez/query.fcqi?db=unigene&cmd=search&term=cathelicidin) and bovine Cathelicidins 8, 9, 10 and 11 (being LAMs 32.8, 32.9, 32.10 and 32.11, respectively) as identified herein and which are derived from LAM 32. The bovine cathelicidin associated LAMs were derived by sequence comparison to the tammar polynucleotide sequence of LAM 32.
The growth rate of AGS cells was assessed in the presence of the cathelicidins. Equal numbers of human gastric epithelial AGS cells were cultured in either control media or media conditioned with bovine cathelicidins for 72 hours in a 1:10 dilution of serum and antibiotic-free Optimem. Cells were then fixed and a Sulforhodamine B (SRB) colorimetric assay was undertaken as described in Journal of Immunological Methods 208: 151-158, K. T. Papazisis, G. D. Geromichalos, K. A. Dimitriadis, A. H. Kortsaris (1997), ‘Optimization of the sulforhodamine B colorimetric assay’.
Briefly, cells were fixed directly by incubation with 10% trichloroacetic acid for 1 hour at 4° C., washed with water, air-dried overnight and then stained with 0.4% w/v sulforhodamine B, 1% acetic acid solution for 10 minutes at room temperature. Cell were again washed with 1% acetic acid and air-dried, then counted in triplicate.

chicks = experiment: Chick growth assay (in ovo injection, weight at hatching); format: in vivo; settings: for Chick weight: bovine polypeptides in conditioned media, 1 ml in ovo on day 16 of incubation, weighed on day of hatching, Saline 51.0
Protocol: FIG. 5. Chick growth assay by measuring weight. 10 LAMs (being bovine homologues having homology to specific Tammar ESTs), 3 known bovine cathelicidins, and four bovine cathelicidin variants were tested. Conditioned media containing a LAM polypeptides or bovine cathelicidins or variants thereof was diluted in a total of 1 ml of normal saline. Eggs on day 16 of incubation were injected with 1 ml of the media containing the into the broad end of the egg. Chicks were weighed on day of hatching. The overall condition of the chick was assessed including the possible presence of stumpy legs and/or loss of down feathers.
Conditioned media containing LAM polypeptides or bovine cathelicidins or variants thereof were diluted in a total of 1 ml of normal saline. Eggs on day 16 of incubation were injected in ovo with 1 ml of LAM polypeptides or bovine cathelicidins or variants thereof into the broad end of the egg. Chicks were weighed on day of hatching. Controls included saline only, or saline and 10 mg/ml of a peptide as a random peptide control.
As set out in Table 23, the left column indicates the polypeptide used in the assay while the right column contains chick weight in grams as a measurement of chick growth. Bolded numbers represent a chick(s) larger than the controls and more than 2 standard deviations from the mean. In addition, bolded numbers represent chicks that have been killed. The mean represents the weight of all the chicks tested within this experiment.

[1] = tested on: HSC-2 oral epithelial cells; experiment: Cell viability assay to assess anti- and pro-apoptotic effects (vinblastine, Alamar Blue); format: cell-based; settings: HSC-2 cells
Protocol: as §1, §2
Vinblastine is a commonly used cytotoxic agent used in chemotherapy. It induces apoptosis in a wide variety of cell types. Caspase activation and DNA fragmentation are hallmarks of the apoptotic process.
Aliquots of the secreted polypeptide samples in 96 well plates were pipetted onto HSC-2 oral epithelial cells and the cells left for 24 hours. After this time, the cells were treated with vinblastine to induce apoptosis. After a further 48 hours, the cells were analyzed for survival using a vital dye, namely Alamar Blue (resazurin) fluorescent dye (TGR BioSciences Pty Ltd, Adelaide, Australia). This dye method is a TGR proprietary assay technology and as such would be known by a person skilled in the art. Internal controls for induction of cell death via apoptosis as well as assay performance were also included on each plate. Cell survival measurements with this technique reflected the degree of apoptosis.

p38 MAPK = p38 MAPK assay of inflammatory activity in the presence of LPS, RAW macrophage cells; format: cell-based
Protocol: as §1
A negative control created by transfection with an insertless vector was used in all assays. For the assays described in Examples 4A, 4B, 4C and 4D results for samples were in the form of relative fluorescence units (RFU) as described herein. […]
Activation of p38 MAPK was assessed in RAW macrophage cells in the presence of lipopolysaccharide (LPS), which is a potent stimulator of the immune system and which mimics bacterial infection, thereby providing a model system for inflammation. […]

CATHL1: bovine cathelicidin 1, known in the art (RLCRIVVIRVCR; UniProt P22226 144-155, looked up) [reference compound]
tammar ERK activity (ERK): yes | cell growth Replicate 3 (AGS cells): 0.303 | cell growth Replicate 1 (AGS cells): 0.412 | cell growth Replicate 4 (AGS cells): 0.378 | cell growth Replicate 2 (AGS cells): 0.419 | cell growth Mean (AGS cells): 0.378 | Chick weight (chicks): 52.8 grams

CATHL2: bovine cathelicidin listed under LAM32, sample number 15 (RFRPPIRRPPIRPPFYPPFRPPIRPPIFPPIRPPFRPPLGPFP; UniProt P19660 131-173, looked up)
tammar ERK activity (ERK): yes

CATHL5: bovine cathelicidin 5 (known sequence) (GGLRSLGRKILRAWKKYGPIIVPIIRIG; UniProt P54229 132-159, looked up) [reference compound]
tammar ERK activity (ERK): yes | cell growth Replicate 3 (AGS cells): 0.382 | cell growth Replicate 1 (AGS cells): 0.423 | cell growth Replicate 4 (AGS cells): 0.415 | cell growth Replicate 2 (AGS cells): 0.441 | cell growth Mean (AGS cells): 0.415 | Chick weight (chicks): Killed | death / overall condition of chick (chicks; in ovo injection on day 16 of incubation): caused death of chicks

B1: LAM 17: FGL2: Fibrinogen like-1 (Table 24); tammar polypeptide SEQ ID NO 47, bovine SEQ ID NO 107 (protein, UniProt Q29RY7 16-441, looked up)
Fibroleukin: TYGFLVVANNETEEIKDEAAQNACRVRLESRGRCEEEGECPYQVNLPPLTIQLPKQFSRIEEVFKEVQNLKEIVNSLKKTCQDCKLQADDSRDPGRNGLLLPGTGAPGETGDNRVRELEGEVNKLSSDLKNAKEEIDVLQGRLEKLNLVNMNNIEQYVDSKVANLTFVVNSLDGKCSSKCPRQEQIQSLPVQQHLIYKDCSEYYTIGKRSSELYRVTPEPRNSSFEVFCDMETMAGGWTVLQARVDGSTNFTRTWQDYKVGFGNLRREFWLGNDKIHLLTKSKDMILRIDLEDFNGIKLYALYDHFYVANEFLKYRLHIGNYNGTAGDALRFSKHYNHDLKFFTTPDRDNDRYPSGNCGLYYSSGWWFDACLSANLNGKYYHQKYRGVRNGIFWGTWPGISEAQPGGYKSSFKEVKMMIRPKHFKP
RFU (pro-apoptotic activity) ([1]; Alamar Blue, Mean RFU 1758076, SD RFU 108156): 1478245 RFU | anti- or pro-apoptotic activity (RFU versus mean) ([1]; text summary of Tables 8-11): pro-apoptotic activity | anti-inflammatory activity (RFU significantly below the mean) (p38 MAPK; RAW macrophage cells with LPS, text summary of Tables 14 and 15): anti-inflammatory activity | RFU (p38 inhibition, anti-inflammatory activity) (p38 MAPK; RAW macrophage cells, 30 minutes sample then LPS 30 minutes, Mean RFU 35980, SD RFU 4227, negative control 45833 RFU): 20814 RFU | Chick weight (chicks): 49.2 grams
